Test results as given in patent US20230095520A1, “PHARMACEUTICAL COMPOSITION FOR PREVENTING OR TREATING CANCER COMPRISING AZOLE DERIVATIVES OR PHARMACEUTICALLY ACCEPTABLE SALT THEREOF” (Yungjin Pharm. Co., Ltd., priority 2020, published 2023).

How the values were obtained:
BxPC-3 = experiment: Cancer cell proliferation GI50 (CCK-8); type: cell-based; details: Homo sapiens, BxPC-3, pancreatic cancer, 72 hours
Experimental: (§1) In this example, in order to confirm the proliferation inhibitory effect on various cancer cells, Compound 121 was tested as follows.
(§2) The cells were cultured with a culture medium shown in Table 9 below at 37° C. in a humidified condition in the presence of 5% CO2. Each cell cultured in a 96-well cell culture plate was treated with the compound of the present invention and cultured for 72 hours.

CCRF-CEM = experiment: Cancer cell proliferation GI50 (CCK-8); type: cell-based; details: Homo sapiens, acute lymphocytic leukemia, 72 hours
Experimental: as §1, §2

DAUDI = experiment: Cancer cell proliferation GI50 (CCK-8); type: cell-based; details: Homo sapiens, Burkitt lymphoma, 72 hours
Experimental: as §1, §2

DU145 = experiment: Cancer cell proliferation GI50 (CCK-8); type: cell-based; details: Homo sapiens, DU-145, DU145, prostate cancer, 72 hours
Experimental: as §1, §2

HCC1937 = experiment: Cancer cell proliferation GI50 (CCK-8); type: cell-based; details: Homo sapiens, HCC1937, breast cancer, 72 hours
Experimental: as §1, §2

HCC70 = experiment: Cancer cell proliferation GI50 (CCK-8); type: cell-based; details: Homo sapiens, HCC70, breast cancer, 72 hours
Experimental: as §1, §2

HCT116 = experiment: Cancer cell proliferation GI50 (CCK-8); type: cell-based; details: Homo sapiens, HCT-116, HCT116, large intestine cancer, 72 hours
Experimental: as §1, §2

HeLa = experiment: Cancer cell proliferation GI50 (CCK-8); type: cell-based; details: Homo sapiens, cervical cancer, 72 hours
Experimental: as §1, §2

JURKAT = experiment: Cancer cell proliferation GI50 (CCK-8); type: cell-based; details: Homo sapiens, T cell acute lymphocytic leukemia, 72 hours
Experimental: as §1, §2

KASUMI-2 = experiment: Cancer cell proliferation GI50 (CCK-8); type: cell-based; details: KASUMI-2, B cell acute lymphocytic leukemia, 72 hours
Experimental: as §1, §2

KG-1 = experiment: Cancer cell proliferation GI50 (CCK-8); type: cell-based; details: Homo sapiens, KG-1, acute myeloid leukemia, 72 hours
Experimental: as §1, §2

MCF-7 = experiment: Cancer cell proliferation GI50 (CCK-8); type: cell-based; details: Homo sapiens, MCF7, MCF-7, breast cancer, 72 hours
Experimental: as §1, §2

MEG-01 = experiment: Cancer cell proliferation GI50 (CCK-8); type: cell-based; details: Homo sapiens, MEG-01, chronic myeloid leukemia, 72 hours
Experimental: as §1, §2

MOLM-13 = experiment: Cancer cell proliferation GI50 (CCK-8); type: cell-based; details: Homo sapiens, MOLM-13, acute myeloid leukemia (AML), 72 hours
Experimental: as §1, §2

MOLM-14 = experiment: Cancer cell proliferation GI50 (CCK-8); type: cell-based; details: Homo sapiens, MOLM-14, acute myeloid leukemia, 72 hours
Experimental: as §1, §2

MOLM/AZA-1 = experiment: Cancer cell proliferation GI50 (CCK-8); type: cell-based; details: MOLM/AZA-1, acute myeloid leukemia, 72 hours
Experimental: as §1, §2

MOLM/CYT = experiment: Cancer cell proliferation GI50 (CCK-8); type: cell-based; details: acute myeloid leukemia, 72 hours
Experimental: as §1, §2

MOLM/DEC-5 = experiment: Cancer cell proliferation GI50 (CCK-8); type: cell-based; details: MOLM/DEC-5, acute myeloid leukemia, 72 hours
Experimental: as §1, §2

MV-4-11 = experiment: Cancer cell proliferation GI50 (CCK-8); type: cell-based; details: Homo sapiens, MV4-11, MV-4-11, acute myeloid leukemia, 72 hours
Experimental: as §1, §2

OCI-AML2 = experiment: Cancer cell proliferation GI50 (CCK-8); type: cell-based; details: Homo sapiens, OCI-AML2, acute myeloid leukemia, 72 hours
Experimental: as §1, §2

RCH-ACV = experiment: Cancer cell proliferation GI50 (CCK-8); type: cell-based; details: B cell acute lymphocytic leukemia, 72 hours
Experimental: as §1, §2

RPMI-8226 = experiment: Cancer cell proliferation GI50 (CCK-8); type: cell-based; details: Homo sapiens, RPMI-8226, multiple myeloma, 72 hours
Experimental: as §1, §2

SK-BR-3 = experiment: Cancer cell proliferation GI50 (CCK-8); type: cell-based; details: Homo sapiens, SK-BR-3, breast cancer, 72 hours
Experimental: as §1, §2

SKM-1 = experiment: Cancer cell proliferation GI50 (CCK-8); type: cell-based; details: Homo sapiens, SKM-1, acute myeloid leukemia, 72 hours
Experimental: as §1, §2

SKOV-3 = experiment: Cancer cell proliferation GI50 (CCK-8); type: cell-based; details: Homo sapiens, SK-OV-3, SKOV-3, ovarian cancer, 72 hours
Experimental: as §1, §2

SR = experiment: Cancer cell proliferation GI50 (CCK-8); type: cell-based; details: Homo sapiens, immunoblastic large cell lymphoma, 72 hours
Experimental: as §1, §2

T47D = experiment: Cancer cell proliferation GI50 (CCK-8); type: cell-based; details: Homo sapiens, breast cancer, 72 hours
Experimental: as §1, §2

THP-1 = experiment: Cancer cell proliferation GI50 (CCK-8); type: cell-based; details: Homo sapiens, THP-1, acute myeloid leukemia, 72 hours
Experimental: as §1, §2

TOM-1 = experiment: Cancer cell proliferation GI50 (CCK-8); type: cell-based; details: TOM-1, B cell acute lymphocytic leukemia, 72 hours
Experimental: as §1, §2

U937 = experiment: Cancer cell proliferation GI50 (CCK-8); type: cell-based; details: Homo sapiens, U-937, U937, acute myeloid leukemia, 72 hours
Experimental: as §1, §2

MOLM-13-GFP human cells = experiment: MOLM-13 orthotopic transplantation animal model; type: in vivo; details: NSG mouse, tail vein, 1 or 2 mg/kg (2D on/5D off) or 2 mg/kg BIW, 3 to 4 weeks, versus control group
Experimental: MOLM-13 cells showing cancer cell inhibitory effect were selected, and Compound 121 was tested as follows using an orthotopic transplantation model.
The animal model used for efficacy evaluation is an NSG (Jackson lab, #005557, USA) mouse lacking the IL-2 receptor gamma gene, in which the immune activity of T cells, B cells, and NK cells is suppressed, and the efficacy was evaluated in an orthotopic transplantation model of MOLM-13-GFP human cells. For the induction method, an orthotopic transplantation model was induced by injecting the cells in an amount of 5×10^5 cells/200 ul/mouse into the tail vein route. Four test groups were G1 excipient control group vehicle (saline), G2 No. 121 1 mg/kg (2D on/5D off), G3 No. 121 2 mg/kg (2D on/ 5D off), and G4 No. 121 2 mg/kg (BIW), and 5 animals per group were set. From the day after cell injection, the tail vein administration of Compound 121 was started at each dose and regimen for 3 to 4 weeks.

Structure (SMILES): CCc1cnc(NC(=O)[C@@H](C)c2cccc(-c3cnc(NC(=O)/C=C/CN(C)C)c(C#N)c3)c2)s1 [Compound 121, (S,E)-N-(3-cyano-5-(3-(1-((5-ethylthiazol-2-yl)amino)-1-oxopropan-2-yl)phenyl)pyridin-2-yl)-4-(dimethylamino)but-2-enamide]
- GI50 (BxPC-3): 6.7 nM
- GI50 (CCRF-CEM): 15.6 nM
- GI50 (DAUDI): 9.15 nM
- GI50 (DU145): 11.5 nM
- GI50 (HCC1937): 14.6 nM
- GI50 (HCC70): 11.2 nM
- GI50 (HCT116): 4 nM
- GI50 (HeLa): 10.8 nM
- GI50 (JURKAT): 17.5 nM
- GI50 (KASUMI-2): 6.26 nM
- GI50 (KG-1): 29 nM
- GI50 (MCF-7): 15.1 nM
- GI50 (MEG-01): 4 nM
- GI50 (MOLM-13): 19 nM
- GI50 (MOLM-14): 2.77 nM
- GI50 (MOLM/AZA-1): 13.2 nM
- GI50 (MOLM/CYT): 0.94 nM
- GI50 (MOLM/DEC-5): 14.9 nM
- GI50 (MV-4-11): 11.8 nM
- GI50 (OCI-AML2): 7.74 nM
- GI50 (RCH-ACV): 4.1 nM
- GI50 (RPMI-8226): 16.4 nM
- GI50 (SK-BR-3): 10.6 nM
- GI50 (SKM-1): 25 nM
- GI50 (SKOV-3): 9.6 nM
- GI50 (SR): 5.83 nM
- GI50 (T47D): 19.3 nM
- GI50 (THP-1): 1.95 nM
- GI50 (TOM-1): 4.36 nM
- GI50 (U937): 2.43 nM
- survival rate (MOLM-13-GFP human cells; FIG. 11): increase in the survival rate
- change in body weight (MOLM-13-GFP human cells; FIG. 12): constant amount of body weight gain
